This test has as its target MMP-13 (Homo sapiens, UniProt P45452). Description: EnzoLyte 520 Generic MMP Assay Kit, 5-FAM/QXL520 FRET peptide substrate. In kind it is biochemical. The text has this:
The EnzoLyte™ 520 Generic MMP Assay Kit (AnaSpec Inc.) can detect the activity of several MMPs including MMP-1, 2, 3, 7, 8, 9, 13, and 14. This kit uses a 5-FAM/QXL™520 fluorescence resonance energy transfer (FRET) peptide as an MMP substrate.

By IC50 is commonly meant the concentration at which inhibition is half-maximal. High values mean a need for much substance, low ones inhibition by little substance. `CNC(=O)[C@@H](NC(=O)c1ccc(-c2cccc(CNC(=O)c3ccc(N(C)C)cc3)c2)o1)C(C)C` [5-{3-[(4-Dimethylamino-benzoylamino)-methyl]-phenyl}-furan-2-carboxylic acid ((S)-2-methyl-1-methylcarbamoyl-propyl)-amide] displayed an IC50 of 110 nM.
For the molecule `CNC(=O)[C@@H](NC(=O)c1ccc(-c2cccc(CNC(=O)c3ccc(C(C)C)cc3)c2)o1)C(C)C` [5-{3-[(4-Isopropyl-benzoylamino)-methyl]-phenyl}-furan-2-carboxylic acid ((S)-2-methyl-1-methylcarbamoyl-propyl)-amide], it took 225 nM to reach half-maximal inhibition (IC50).
In the case of `CNC(=O)[C@@H](NC(=O)c1ccc(-c2cccc(CNC(=O)c3ccc(OC)cc3)c2)o1)C(C)C` [5-{3-[(4-Methoxy-benzoylamino)-methyl]-phenyl}-furan-2-carboxylic acid ((S)-2-methyl-1-methylcarbamoyl-propyl)-amide] it was 155 nM.
In the case of `CNC(=O)[C@@H](NC(=O)c1ccc(-c2cccc(CNC(=O)c3ccc(C)cc3)c2)o1)C(C)C` [5-{3-[(4-Methyl-benzoylamino)-methyl]-phenyl}-furan-2-carboxylic acid ((S)-2-methyl-1-methylcarbamoyl-propyl)-amide] it was 175 nM; in that of `CNC(=O)[C@@H](NC(=O)c1ccc(-c2cccc(CNC(=O)C3CCCCC3)c2)o1)C(C)C` [5-{3-[(Cyclohexanecarbonyl-amino)-methyl]-phenyl}-furan-2-carboxylic acid ((S)-2-methyl-1-methylcarbamoyl-propyl)-amide], 165 nM; in that of `CNC(=O)[C@@H](NC(=O)c1ccc(-c2cccc(CNC(=O)c3cccc(Br)n3)c2)o1)C1CC1` [6-Bromo-N-[3-(5-{[(1S)-1-cyclopropyl-2-(methylamino)-2-oxoethyl]carbamoyl}-2-furyl)benzyl]pyridine-2-carboxamide], 27 nM.
As for `CNC(=O)[C@@H](NC(=O)c1ccc(-c2cccc(CNC(=O)c3cccc(Cl)n3)c2)o1)C(C)C` [6-Chloro-N-[3-(5-{[(1S)-2-methyl-1-(methylcarbamoyl)propyl]carbamoyl}-2-furyl)benzyl]pyridine-2-carboxamide], the figure is 2 nM.
`CNC(=O)[C@@H](NC(=O)c1ccc(-c2cccc(CNC(=O)c3cccc(F)n3)c2)o1)C(C)C` [6-Fluoro-N-[3-(5-{[(1S)-2-methyl-1-(methylcarbamoyl)propyl]carbamoyl}-2-furyl)benzyl]pyridine-2-carboxamide]: the IC50 is 2 nM.
As for `CNC(=O)[C@@H](NC(=O)c1ccc(-c2ccc(NC(=O)c3cccc(C)n3)cc2)o1)C(C)C` [6-Methyl-N-[4-(5-{[(2S)-3-methyl-1-(methylamino)-1-oxobutan-2-yl]carbamoyl}furan-2-yl)phenyl]pyridine-2-carboxamide], the figure is 14 nM; as for `CNC(=O)[C@@H](NC(=O)c1ccc(-c2ccc(NC(=O)c3cn4cc(C(N)=O)ccc4n3)cc2)o1)C1CCCCC1` [Imidazo[1,2-a]pyridine-2,6-dicarboxylic acid 6-amide 2-[(4-{5-[((S)-cyclohexyl-methylcarbamoyl-melhyl)-carbamoyl]-furan-2-yl}-phenyl)-amide]], 24 nM; as for `CNC(=O)[C@@H](NC(=O)c1ccc(-c2ccc(NC(=O)OC)cc2)o1)C1CCCCC1` [Methyl [4-(5-{[(1S)-1-cyclohexyl-2-(methylamino)-2-oxoethyl]carbamoyl}furan-2-yl)phenyl]carbamate], 225 nM.
In the case of `CNC(=O)[C@@H](NC(=O)c1ccc(-c2cccc(CNC(=O)c3cccc(C)n3)c2)o1)C1CCCCC1` [N-[3-(5-{[(1S)-1-cyclohcxyl-2-(methylamino)-2-oxoethyl]carbamoyl}furan-2-yl)benzyl]-6-methylpyridine-2-carboxamide] it was 4 nM.
On to `CNC(=O)[C@@H](NC(=O)c1ccc(-c2cccc(CNC(=O)c3cc(C)n(C)n3)c2)o1)C1CCCCC1` [N-[3-(5-{[(1S)-1-cyclohexyl-2-(methylamino)-2-oxoethyl]carbamoyl}furan-2-yl)benzyl]-1,5-dimethyl-1H-pyrazole-3-carboxamide], for which half-maximal inhibition (IC50) was put at 72 nM.
In the case of `CNC(=O)[C@@H](NC(=O)c1ccc(-c2cccc(CNC(=O)c3cc4ccccc4o3)c2)o1)C1CCCCC1` [N-[3-(5-{[(1S)-1-cyclohexyl-2-(methylamino)-2-oxoethyl]carbamoyl}furan-2-yl)benzyl]-1-benzofuran-2-carboxamide] it was 11 nM; in that of `CNC(=O)[C@@H](NC(=O)c1ccc(-c2cccc(CNC(=O)c3nccn3C)c2)o1)C1CCCCC1` [N-[3-(5-{[(1S)-1-cyclohexyl-2-(methylamino)-2-oxoethyl]carbamoyl}furan-2-yl)benzyl]-1-methyl-1H-imidazole-2-carboxamide], 313 nM.
In the case of `CNC(=O)[C@@H](NC(=O)c1ccc(-c2cccc(CNC(=O)c3ccn(C)n3)c2)o1)C1CCCCC1` [N-[3-(5-{[(1S)-1-cyclohexyl-2-(methylamino)-2-oxoethyl]carbamoyl}furan-2-yl)benzyl]-1-methyl-1H-pyrazole-3-carboxamide] it was 24 nM; in that of `CNC(=O)[C@@H](NC(=O)c1ccc(-c2cccc(CNC(=O)c3ccnn3C)c2)o1)C1CCCCC1` [N-[3-(5-{[(1S)-1-cyclohexyl-2-(methylamino)-2-oxoethyl]carbamoyl}furan-2-yl)benzyl]-1-methyl-1H-pyrazole-5-carboxamide], 143 nM.
As for `CNC(=O)[C@@H](NC(=O)c1ccc(-c2cccc(CNC(=O)c3ccnc(C(F)(F)F)n3)c2)o1)C1CCCCC1` [N-[3-(5-{[(1S)-1-cyclohexyl-2-(methylamino)-2-oxoethyl]carbamoyl}furan-2-yl)benzyl]-2-(trifluoromethyl)pyrimidine-4-carboxamide], the figure is 7 nM.
Molecule `CNC(=O)[C@@H](NC(=O)c1ccc(-c2cccc(CNC(=O)c3cc(C)n[nH]3)c2)o1)C1CCCCC1` [N-[3-(5-{[(1S)-1-cyclohexyl-2-(methylamino)-2-oxoethyl]carbamoyl}furan-2-yl)benzyl]-3-methyl-1H-pyrazole-5-carboxamide] came in with an IC50 of 123 nM. Compared with the last molecule, the IC50 is about 18-fold higher.
As for `CNC(=O)[C@@H](NC(=O)c1ccc(-c2cccc(CNC(=O)c3occc3C)c2)o1)C1CCCCC1` [N-[3-(5-{[(1S)-1-cyclohexyl-2-(methylamino)-2-oxoethyl]carbamoyl}furan-2-yl)benzyl]-3-methylfuran-2-carboxamide], half-maximal inhibition (IC50) required 180 nM.
As for `CNC(=O)[C@@H](NC(=O)c1ccc(-c2cccc(CNC(=O)c3ncccc3C)c2)o1)C1CCCCC1` [N-[3-(5-{[(1S)-1-cyclohexyl-2-(methylamino)-2-oxoethyl]carbamoyl}furan-2-yl)benzyl]-3-methylpyridine-2-carboxamide], the figure is 103 nM.
In the case of `CCc1ccnc(C(=O)NCc2cccc(-c3ccc(C(=O)N[C@H](C(=O)NC)C4CCCCC4)o3)c2)c1` [N-[3-(5-{[(1S)-1-cyclohexyl-2-(methylamino)-2-oxoethyl]carbamoyl}furan-2-yl)benzyl]-4-ethylpyridine-2-carboxamide], the IC50 came out at 38 nM.
Molecule `CNC(=O)[C@@H](NC(=O)c1ccc(-c2cccc(CNC(=O)c3cn4c(C)cccc4n3)c2)o1)C1CCCCC1` [N-[3-(5-{[(1S)-1-cyclohexyl-2-(methylamino)-2-oxoethyl]carbamoyl}furan-2-yl)benzyl]-5-methylimidazo[1,2-a]pyridine-2-carboxamide] had an IC50 of 110 nM.
In the case of `CNC(=O)[C@@H](NC(=O)c1ccc(-c2cccc(CNC(=O)c3cncc(C)c3)c2)o1)C1CCCCC1` [N-[3-(5-{[(1S)-1-cyclohexyl-2-(methylamino)-2-oxoethyl]carbamoyl}furan-2-yl)benzyl]-5-methylpyridine-3-carboxamide] it was 30 nM; in that of `CNC(=O)[C@@H](NC(=O)c1ccc(-c2cccc(CNC(=O)c3cn4ccc(C)cc4n3)c2)o1)C1CCCCC1` [N-[3-(5-{[(1S)-1-cyclohexyl-2-(methylamino)-2-oxoethyl]carbamoyl}furan-2-yl)benzyl]-7-methylimidazo[1,2-a]pyridine-2-carboxamide], 137 nM; in that of `CNC(=O)[C@@H](NC(=O)c1ccc(-c2cccc(CNC(=O)c3ccccn3)c2)o1)C1CCCCC1` [N-[3-(5-{[(1S)-1-cyclohexyl-2-(methylamino)-2-oxoethyl]carbamoyl}furan-2-yl)benzyl]pyridine-2-carboxamide], 9 nM.
`CNC(=O)[C@@H](NC(=O)c1ccc(-c2cccc(CNC(=O)c3ccnc(C(F)(F)F)n3)c2)o1)C1CCOCC1` [N-[3-(5-{[(1S)-2-(methylamino)-2-oxo-1-(tetrahydro-2H-pyran-4-yl)ethyl]carbamoyl}-2-furyl)benzyl]-2-(trifluoromethyl)pyrimidine-4-carboxamide] returned an IC50 of 2 nM.
In the case of `CNC(=O)[C@@H](NC(=O)c1ccc(-c2cccc(CNC(=O)c3cccc(C(F)(F)F)n3)c2)o1)C1CCOCC1` [N-[3-(5-{[(1S)-2-(methylamino)-2-oxo-1-(tetrahydro-2H-pyran-4-yl)ethyl]carbamoyl}-2-furyl)benzyl]-6-(trifluoromethyl)pyridine-2-carboxamide] it was 2 nM.
Regarding `CNC(=O)[C@@H](NC(=O)c1ccc(-c2cccc(CNC(=O)C3CCCN3)c2)o1)C(C)C` (stereo partly drawn) [N-[3-(5-{[(1S)-2-methyl-1-(methylcarbamoy)propyl]carbamoyl}-2-furyl)benzyl]prolinamide], inhibition was half-maximal at 305 nM (IC50).
In the case of `CNC(=O)[C@@H](NC(=O)c1ccc(-c2cccc(CNC(=O)c3cc4ccccc4o3)c2)o1)C(C)C` [N-[3-(5-{[(1S)-2-methyl-1-(methylcarbamoyl)propyl]carbamoyl}-2-furyl)benzyl]-1-benzofuran-2-carboxamide] it was 8 nM; in that of `CNC(=O)[C@@H](NC(=O)c1ccc(-c2cccc(CNC(=O)c3nc4ccccc4[nH]3)c2)o1)C(C)C` [N-[3-(5-{[(1S)-2-methyl-1-(methylcarbamoyl)propyl]carbamoyl}-2-furyl)benzyl]-1H-benzimidazole-2-carboxamide], 33 nM.

Source of the values: patent US8637550B2, “Heteroaryl diamide compounds useful as MMP-13 inhibitors” (Boehringer Ingelheim International GmbH, priority 2008, dated 2014).
